Common to all, as to type: cell-based
Assay [1] addresses T1, F876L mutant Androgen Receptor (AR-F876L) (Homo sapiens, UniProt P10275, F877L).
T1 construct: expressed in transfected cells; host or cells: LNCaP (LNCaP F876L)
T1 sequence (P10275 1-920 F877L): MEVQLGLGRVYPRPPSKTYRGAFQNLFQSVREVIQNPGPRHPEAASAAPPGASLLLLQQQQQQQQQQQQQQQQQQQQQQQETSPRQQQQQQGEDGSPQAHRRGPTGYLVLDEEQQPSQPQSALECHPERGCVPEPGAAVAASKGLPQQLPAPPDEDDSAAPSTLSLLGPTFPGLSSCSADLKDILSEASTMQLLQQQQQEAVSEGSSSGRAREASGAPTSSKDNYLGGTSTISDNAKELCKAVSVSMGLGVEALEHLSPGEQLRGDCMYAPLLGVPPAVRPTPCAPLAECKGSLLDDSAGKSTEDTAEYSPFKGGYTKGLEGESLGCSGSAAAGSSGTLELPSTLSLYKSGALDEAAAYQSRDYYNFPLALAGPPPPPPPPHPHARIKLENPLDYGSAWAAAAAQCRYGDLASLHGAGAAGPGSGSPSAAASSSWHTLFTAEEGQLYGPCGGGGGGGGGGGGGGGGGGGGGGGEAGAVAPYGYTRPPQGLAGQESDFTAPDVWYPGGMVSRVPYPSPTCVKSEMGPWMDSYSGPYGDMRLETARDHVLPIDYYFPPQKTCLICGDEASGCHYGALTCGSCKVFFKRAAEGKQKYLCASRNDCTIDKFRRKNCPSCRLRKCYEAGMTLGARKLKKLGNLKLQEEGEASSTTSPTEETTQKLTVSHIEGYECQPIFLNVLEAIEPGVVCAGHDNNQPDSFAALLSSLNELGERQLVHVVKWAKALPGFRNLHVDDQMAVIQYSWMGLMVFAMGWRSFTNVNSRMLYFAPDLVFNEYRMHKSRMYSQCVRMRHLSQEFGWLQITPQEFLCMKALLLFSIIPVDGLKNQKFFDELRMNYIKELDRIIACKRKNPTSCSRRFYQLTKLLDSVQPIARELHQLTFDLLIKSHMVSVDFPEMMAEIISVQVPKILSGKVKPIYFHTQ
Kind of assay: LNCaP-AR-F876L ANT reporter assay (ARE firefly luciferase, antagonist mode). Particulars: for Emax: read-out: LNCaP-AR-F876L ANT MAX % Inh; for IC50: read-out: LNCaP-AR-F876L ANT pIC50 (converted). An outline of the steps: (§1)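 LNCaP cells stably expressing wild-type or F876L AR (puromycin-selected pooled populations) were cultured in charcoal-stripped serum medium. In antagonist mode, agonist challenge was 400 pM for wild-type and 600 pM for F876L.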
In general terms: A reporter such as luciferase makes a cellular process visible.

The target of assay [2] is T2, wild-type Androgen Receptor (AR-wt) (Homo sapiens, UniProt P10275).
T2 construct: expressed in transfected cells; host or cells: LNCaP (LNCaP AR (cs))
T2 sequence (P10275 1-920): T1 sequence (P10275 1-920 F877L) with L877F
The assay can be described thus: LNCaP-AR-wt ANT reporter assay (ARE firefly luciferase, antagonist mode). The note with it: for IC50: antagonist mode, 400 pM R-1881 challenge, −Log10(IC50 [Molar]), read-out: LNCaP-AR-wt ANT pIC50 (converted); for Emax: read-out: LNCaP-AR-wt ANT MAX % Inh. The method, boiled down: as §1

The target of assay [3] is T2, wild-type Androgen Receptor (AR-wt). Kind of assay: LNCaP-AR-wt AG reporter assay (ARE firefly luciferase, agonist mode). The note with it: for Emax: read-out: LNCaP-AR-wt AG MAX % Stim. The method, boiled down:
(§2)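 Read-out is luciferase luminescence taken 1 h after Steady-Glo addition, following 20-24 h compound exposure at 37 °C in LNCaP pools stably carrying wild-type or F876L AR. Cells were grown in charcoal-stripped serum. Antagonist wells received agonist at 400 pM (WT) or 600 pM (F876L).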

For assay [4], the target named is T1, F876L mutant Androgen Receptor (AR-F876L). The assay can be described thus: LNCaP-AR-F876L AG reporter assay (ARE firefly luciferase, agonist mode). Particulars: for Emax: read-out: LNCaP-AR-F876L AG MAX % Stim. The method, boiled down:
as §2

The mark [5] stands for this setting: maximum % inhibition of R1881 control response over tested concentration range.
The mark [6] stands for this setting: agonist mode, −Log10(EC50 [Molar]), read-out: LNCaP-AR-wt AG pEC50 (converted).
Setting [7] is: maximum % stimulation (agonist response) over tested concentration range.
The mark [8] stands for this setting: agonist mode, −Log10(EC50 [Molar]), read-out: LNCaP-AR-F876L AG pEC50 (converted).

Residue numbers refer to the chain shown, from its start. Read-outs that look alike come from different tables or passages of the source.

Data on ten compounds can be found in patent publication US20180008587A1, “THIOHYDANTOIN ANDROGEN RECEPTOR ANTAGONISTS FOR THE TREATMENT OF CANCER” (Jaressen Pharmaceutica NV, priority 2016, published 2018).

`CS(=O)(=O)N1CCC(Oc2ccc(N3C(=S)N(c4cnc(C#N)c(C(F)(F)F)c4)C(=O)C34CCC4)cc2)CC1` [Cpd 122, 5-[8-[4-[(1-methylsulfonyl-4-piperidyl)oxy]phenyl]-5-oxo-7-thioxo-6,8-diazaspiro[3.4]octan-6-yl]-3-(trifluoromethyl)pyridine-2-carbonitrile]: the Emax turned out to be 90.5% in assay [1] (setting [5]), 99.7% in assay [2] (setting [5]), 2.2% in assay [3] (setting [7]) and 6.2% in assay [4] (setting [7]). The IC50 in assay [1] is 437 nM; in assay [2] it was 302 nM. Moreover, the EC50 in assay [3] (setting [6]) and in assay [4] (setting [8]) was greater than 15100 nM in each case.
As to `N#Cc1ncc(N2C(=O)C3(CCC3)N(c3cccc(F)c3F)C2=S)cc1C(F)(F)F` [Cpd 106, 5-[8-(2,3-difluorophenyl)-5-oxo-7-thioxo-6,8-diazaspiro[3.4]octan-6-yl]-3-(trifluoromethyl)pyridine-2-carbonitrile], the Emax in assay [1] (setting [5]) was determined as 95.9%; in assay [2] (setting [5]), 101%; in assay [3] (setting [7]), 1.8%; in assay [4] (setting [7]) it was 2.4%. In addition, the IC50 in assay [1] is 631 nM; in assay [2], 617 nM. The EC50 in assay [3] (setting [6]) and in assay [4] (setting [8]) was greater than 15100 nM each time.
For `N#Cc1ncc(N2C(=O)C3(CCC3)N(c3ccc(Oc4ccccc4)cc3)C2=S)cc1C(F)(F)F` [Cpd 99, 5-[5-oxo-8-(4-phenoxyphenyl)-7-thioxo-6,8-diazaspiro[3.4]octan-6-yl]-3-(trifluoromethyl)pyridine-2-carbonitrile], the Emax in assay [1] (setting [5]) was determined as 85.9%; in assay [2] (setting [5]), 97.2%; in assay [3], 1.6%; in assay [4], 1.6%. Besides, the results for the IC50 in assay [1] and in assay [2] were 389 nM and 417 nM, respectively. Further, the EC50 in assay [3] (setting [6]) and in assay [4] (setting [8]) was greater than 15100 nM throughout.
`Cc1cc(N2C(=O)C3(CCC3)N(c3ccc(OC4CCN(C)CC4)cc3)C2=S)cnc1C#N` [Cpd 4, 3-methyl-5-[8-[4-[(1-methyl-4-piperidyl)oxy]phenyl]-5-oxo-7-thioxo-6,8-diazaspiro[3.4]octan-6-yl]pyridine-2-carbonitrile]: the Emax is 100% in assay [1] (setting [5]), 100% in assay [2] (setting [5]), 0.2% in assay [3] (setting [7]) and -0.4% in assay [4] (setting [7]). The IC50 is 269 nM in assay [1] and 1100 nM in assay [2]. Further, the EC50 in assay [3] (setting [6]) and in assay [4] (setting [8]) was greater than 15100 nM throughout.
As for `Cc1cc(N2C(=O)C3(CCC3)N(c3ccc(-c4cncc(F)c4)cc3)C2=S)cnc1C#N` [Cpd 104, 5-[8-[4-(5-fluoro-3-pyridyl)phenyl]-5-oxo-7-thioxo-6,8-diazaspiro[3.4]octan-6-yl]-3-methyl-pyridine-2-carbonitrile], the Emax in assay [1] (setting [5]) came out at 98.4%; in assay [2] (setting [5]), 99.7%; in assay [3] (setting [7]), 2.7%; in assay [4] (setting [7]), 2.2%. Besides, the IC50 in assay [1] is 12 nM; in assay [2], 129 nM. Further, the EC50 in assay [3] (setting [6]) and in assay [4] (setting [8]) was greater than 15100 nM throughout.
`N#Cc1ncc(N2C(=O)C3(CCC3)N(c3ccc(C(=O)NCc4ccc(Cl)cc4)c(F)c3)C2=S)cc1C(F)(F)F` [Cpd 53, N-[(4-chlorophenyl)methyl]-4-[6-[6-cyano-5-(trifluoromethyl)-3-pyridyl]-5-oxo-7-thioxo-6,8-diazaspiro[3.4]octan-8-yl]-2-fluoro-benzamide]: the Emax in assay [1] (setting [5]) was determined as 96.7%; in assay [2] (setting [5]), 97%; in assay [3] (setting [7]), 1%; in assay [4] (setting [7]), 0.5%. Moreover, the IC50 in assay [1] was 646 nM; in assay [2], 912 nM. In addition, the EC50 in assay [3] (setting [6]) and in assay [4] (setting [8]) was greater than 15100 nM each time.
For the compound `Cc1cc(N2C(=O)C3(CCC3)N(c3ccc(C(=O)Nc4ccnn4C)c(F)c3)C2=S)cnc1C#N` [Cpd 45, 4-[6-(6-cyano-5-methyl-3-pyridyl)-5-oxo-7-thioxo-6,8-diazaspiro[3.4]octan-8-yl]-2-fluoro-N-(2-methylpyrazol-3-yl)benzamide], the Emax in assay [1] (setting [5]) turned out to be 100%; in assay [2] (setting [5]), 101%; in assay [3] (setting [7]) it was 0.2%; in assay [4] (setting [7]), 0.1%. The IC50 in assay [1] was 437 nM; in assay [2] it was 1020 nM. Moreover, the EC50 in assay [3] (setting [6]) and in assay [4] (setting [8]) was greater than 15100 nM each time.
For the compound `CCCNC(=O)c1ccc(N2C(=S)N(c3cnc(C#N)c(C(F)(F)F)c3)C(=O)C23CCC3)cc1F` [Cpd 68, 4-[6-[6-cyano-5-(trifluoromethyl)-3-pyridyl]-5-oxo-7-thioxo-6,8-diazaspiro[3.4]octan-8-yl]-2-fluoro-N-propyl-benzamide], the Emax was determined as 98% in assay [1], 96.7% in assay [2], 0.2% in assay [3] and 0.9% in assay [4]. Further, the IC50 is 427 nM in assay [1] and 589 nM in assay [2]. The EC50 in assay [3] and in assay [4] was greater than 15100 nM in each case.
Consider `N#Cc1ncc(N2C(=O)C3(CCC3)N(c3ccc(C(=O)NCc4ccccc4)c(F)c3)C2=S)cc1C(F)(F)F` [Cpd 36, N-benzyl-4-[6-[6-cyano-5-(trifluoromethyl)-3-pyridyl]-5-oxo-7-thioxo-6,8-diazaspiro[3.4]octan-8-yl]-2-fluoro-benzamide], for which the Emax in assay [1] amounted to 91.3%; in assay [2], 96.1%; in assay [3], 0.9%; in assay [4] it was 0.3%. Moreover, the values for the IC50 in assay [1] and in assay [2] were 851 nM and 1480 nM, respectively. For the same compound, the EC50 in assay [3] and in assay [4] was greater than 15100 nM in each case.
As to `N#Cc1ncc(N2C(=O)C3(CCC3)N(c3ccc4[nH]ncc4c3)C2=S)cc1C(F)(F)F` [Cpd 92, 5-[8-(1H-indazol-5-yl)-5-oxo-7-thioxo-6,8-diazaspiro[3.4]octan-6-yl]-3-(trifluoromethyl)pyridine-2-carbonitrile], the Emax in assay [1] is 98.2%; in assay [2], 94.7%; in assay [3], 2.8%; in assay [4], 1.3%. Moreover, the figures for the IC50 in assay [1] and in assay [2] were 257 nM and 631 nM, respectively. Further, the EC50 in assay [3] and in assay [4] was greater than 15100 nM each time.
